Assay results reported in ChEMBL document CHEMBL1201862, “PubChem BioAssay data set” (2004).
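Cultured in 96-well plates, cells were exposed to test compound for 48 hours across five concentrations. Here, GI50 denotes the concentration required for 50% inhibition of growth.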 Activity calls are given as the source filed them. Rule as the data show it: active = GI50 up to about 1.1 µM and inactive = higher.

Tests used:
Experiment in all cases: inhibition of tumour cell growth, NCI panel, 48 h
[1] = test system: KM12
[2] = test system: RPMI-8226
[3] = test system: SK-MEL-28
[4] = test system: SK-MEL-2
[5] = test system: NCI-H23
[6] = test system: SNB-75
[7] = test system: SF-295
[8] = test system: SF-539
[9] = test system: EKVX
[10] = test system: SK-MEL-5
[11] = test system: HT-29
[12] = test system: HOP-92
[13] = test system: U-251
[14] = test system: SNB-19
[15] = test system: MDA-MB-231
[16] = test system: Hs-578T
[17] = test system: NCI-H226
[18] = test system: UO-31
[19] = test system: HL-60

Measured: GI50

O=C(O)Cn1cnc2c(O)nc(Nc3ccccc3)nc21
inactive: [1] > 100 µM | [2] > 100 µM | [3] > 100 µM | [4] > 100 µM | [5] > 100 µM | [6] > 100 µM | [7] > 100 µM | [8] > 100 µM | [9] > 100 µM | [10] > 100 µM | [11] > 100 µM | [12] > 100 µM | [13] > 100 µM | [14] > 100 µM | [15] > 100 µM | [16] > 100 µM | [17] > 100 µM

O=C(O)C(Cc1ccccc1-c1ccccc1)C(=O)O
inactive: [1] > 100 µM | [2] > 100 µM | [3] > 100 µM | [4] > 100 µM | [5] > 100 µM | [6] > 100 µM | [18] > 100 µM | [7] 86.7 µM | [8] > 100 µM | [9] > 100 µM | [10] > 100 µM | [11] > 100 µM | [12] > 100 µM | [13] > 100 µM | [14] > 100 µM | [15] > 100 µM | [16] > 100 µM | [17] > 100 µM

CN(Cc1c[n+]([O-])c2nc(N)nc(N)c2n1)c1ccc(C(=O)NC23CC4CC(CC(C4)C2)C3)cc1
inactive: [1] > 100 µM | [2] 93.1 µM | [3] 23.1 µM | [4] > 100 µM | [5] > 100 µM | [19] 31 µM | [6] 20.2 µM | [18] > 100 µM | [7] > 100 µM | [9] > 100 µM | [10] 34.7 µM | [13] 34.5 µM | [14] 92.7 µM | [15] 98.9 µM | [16] 10.6 µM | [17] > 100 µM

C[C@]1(O)CC(=O)c2c(c(-c3ccc4cc5c(c(O)c4c3O)C(=O)C[C@@](C)(O)C5)c3cccc(O)c3c2O)C1
inactive: [1] 3.31 µM | [2] 4.67 µM | [3] 10.4 µM | [4] 2.52 µM | [5] 3.69 µM | [6] 7.59 µM | [18] 4.16 µM | [7] 4.86 µM | [8] 2.75 µM | [9] 11.2 µM | [10] 3.66 µM | [11] 5.71 µM | [12] 2.58 µM | [13] 4.02 µM | [14] 6.52 µM | [15] 4.91 µM | [16] 4.06 µM | [17] 3.85 µM

[N-]=[N+]=Nc1c(Cl)c(Cl)nc2ccccc12
inactive: [1] > 100 µM | [2] 62.8 µM | [3] > 100 µM | [4] > 100 µM | [5] 75.5 µM | [6] 44.8 µM | [18] > 100 µM | [7] 82.8 µM | [8] > 100 µM | [9] 92.7 µM | [10] > 100 µM | [11] > 100 µM | [12] 35.3 µM | [14] > 100 µM | [15] 81.5 µM | [16] 61.8 µM | [17] 66.7 µM

O=C(Cc1ccc(Cl)c(Cl)c1)NCC1(N2CCCCC2)CCCCC1
inactive: [1] 50.7 µM | [2] 35.3 µM | [4] 46.1 µM | [5] 57.7 µM | [19] 41.4 µM | [18] 27.1 µM | [7] 37.3 µM | [9] 59.8 µM | [11] 26.1 µM | [12] 78.7 µM | [13] 69.3 µM | [14] > 100 µM | [15] 58.5 µM | [16] 52.2 µM

Cc1ccc(S(=O)(=O)CNC(=O)C(O)(O)C(F)(F)F)cc1
inactive: [1] > 100 µM | [2] > 100 µM | [3] > 100 µM | [4] > 100 µM | [5] > 100 µM | [19] > 100 µM | [18] > 100 µM | [7] > 100 µM | [8] > 100 µM | [9] > 100 µM | [10] > 100 µM | [11] > 100 µM | [12] > 100 µM | [13] > 100 µM | [14] > 100 µM | [15] > 100 µM | [16] > 100 µM

NCCCCCCn1c(-c2ccc(Br)cc2)cs/c1=N\c1ccccc1
inactive: [1] 5.74 µM | [2] 3.33 µM | [3] 12.7 µM | [4] 18.6 µM | [5] 14.7 µM | [6] 11.9 µM | [18] 10.4 µM | [7] 16 µM | [8] 13.1 µM | [9] 13.8 µM | [10] 10.1 µM | [11] 5.9 µM | [12] 12.7 µM | [13] 7.89 µM | [14] 14.9 µM | [15] 14.4 µM | [16] 13.1 µM | [17] 16.9 µM

COc1ccc(C(O)c2ccccn2)cc1 (centres undefined)
inactive: [1] > 100 µM | [2] > 100 µM | [3] > 100 µM | [4] > 100 µM | [5] > 100 µM | [6] > 100 µM | [7] > 100 µM | [8] > 100 µM | [9] > 100 µM | [10] > 100 µM | [11] > 100 µM | [12] > 100 µM | [13] > 100 µM | [14] > 100 µM | [15] > 100 µM | [16] > 100 µM | [17] > 100 µM

O=C(CSCC(=O)N/N=C\c1cccc(Br)c1)N/N=C\c1cccc(Br)c1
inactive: [1] 15 µM | [3] 18.8 µM | [4] 22.9 µM | [5] 14.6 µM | [19] 30.3 µM | [6] 18.1 µM | [18] 15.5 µM | [7] 14.9 µM | [8] 23.6 µM | [9] 27.1 µM | [10] 19.1 µM | [11] 23.1 µM | [12] 18.9 µM | [13] 15.1 µM | [14] 46.5 µM | [15] 12.7 µM | [16] 18.2 µM | [17] 15.7 µM

Cc1ccc(-n2nnc(C(N)=O)c2O)cc1
inactive: [1] > 100 µM | [2] > 100 µM | [3] > 100 µM | [5] > 100 µM | [19] > 100 µM | [6] > 100 µM | [18] > 100 µM | [7] > 100 µM | [9] > 100 µM | [10] > 100 µM | [11] > 100 µM | [13] > 100 µM | [14] > 100 µM | [15] > 100 µM | [16] > 100 µM | [17] > 100 µM

CC(=O)C1C(=O)C(=O)N(c2ccc([N+](=O)[O-])cc2[N+](=O)[O-])C1=O (centres undefined)
inactive: [1] > 100 µM | [3] > 100 µM | [4] > 100 µM | [5] > 100 µM | [19] > 100 µM | [6] > 100 µM | [18] 59.3 µM | [7] > 100 µM | [8] > 100 µM | [9] 56.5 µM | [10] > 100 µM | [11] > 100 µM | [12] > 100 µM | [13] > 100 µM | [14] > 100 µM | [15] > 100 µM | [16] > 100 µM | [17] > 100 µM
